{"source": "paper PMC10580383", "about": "“Development of Melanocortin 4 Receptor Agonists by Exploiting Animal-Derived Macrocyclic, Disulfide-Rich Peptide Scaffolds” (ACS Pharmacology & Translational Science, 2023)", "key": {"MC4R over MC1R and MC3R": {"system": "MC4R over MC1R and MC3R", "conditions": "Figure S6"}, "human MC4R [1]": {"molecular_target": "T1, human MC4R (Homo sapiens, UniProt P32245)", "T1 construct": "expressed in transfected cells; host or cells: HEK293T, transient co-transfection", "assay": "nanoluciferase complementation assay MC4R-LgBit / Gαs-SmBit (Gαs coupling)", "format": "cell-based", "conditions": "for increase in efficacy in recruiting Gαs compared to α-MSH: nanoluciferase complementation MC4R-LgBit/Gαs-SmBit, normalized to α-MSH maximum response", "description": "We proceeded with more detailed pharmacological characterization of Pr4LP1 and Ar3LP1 to gain more insights into the signaling pathways that follow MC4R stimulation.\n(§1) Figure 5 Biosensor characterization of Pr4LP1 and Ar3LP1 peptides acting as agonists at MC4R. […] Data are represented as means ± SEM for all experimental replicates and were performed in triplicate from n ≥ 3 independent experiments.\n(§2) The plasmid constructs used to show interactions between human MC4R and Gαs protein and/or β-arrestin-2 were designed with fused SmBit and LgBit proteins, that upon complementation form the fully functional nanoluciferase enzyme that can produce detectable bioluminescence upon addition of the substrate furimazine. For the Gαs coupling, we used a LgBit fused at the C-terminus of MC4R (MC4R-LgBit) and cotransfected with the Gαs-SmBit construct. For the β-arrestin-2 recruitment assay, we used a C-terminally fused MC4R-SmBit and the β-arrestin-2-LgBit constructs. The cotransfection ratio was 1:10 (Gαs/β-arrestin-2/receptor). Cells were harvested, washed, and resuspended in fresh medium 24 h post-transfection. Approximately 5 × 10^4 cells/well were distributed in precoated 96-well white plates and allowed to adhere overnight. On an experimental day, cells were washed with HBSS and maintained in HBSS (80 μL/well). The furimazine substrate for the luciferase (50×) stock was diluted at 1× with HBSS, and 10 μL/well was added to all assay wells and incubated for 12 min before addition of ligands. Ligand dilutions were prepared at 10× final concentration in HBSS, and 10 μL/well was added to the assay wells. Plates were read 5 min following ligand addition using a ClarioStar equipped with a nanoluc-compatible optic module (BMG Labtech). […] EC50/Emax values were calculated via a nonlinear regression analysis."}, "mouse MC4R-EGFP": {"system": "mouse MC4R-EGFP", "assay": "kinetic BRET β-arrestin-2 recruitment assay (MC4R-EGFP / β-arrestin-2-nanoluciferase)", "format": "cell-based", "conditions": "ligand 10 μM; HEK293 cells, MC4R-EGFP and β-arrestin-2-NLuc; mean ligand-induced BRET from 312 to 2433 s, NDP-α-MSH set as 100; three independent experiments", "description": "Considering the physiological relevance of β-arrestins and their critical role in orchestrating MC4R signaling, we measured β-arrestin-2 recruitment in a kinetic bioluminescence resonance energy transfer (BRET) assay. We screened at a ligand concentration of 10 μM in HEK293 cells transiently expressing MC4R coupled to EGFP, and β-arrestin-2 fused to nanoluciferase. […] By contrast, Pr4LP1, Ar3LP1, Ar3LP2, and GoLP1 recruited β-arrestin-2 with greater efficiencies (>130%) than NDP-α-MSH (Figures 4 and S5B,C).\nFigure 4 β-Arrestin-2 recruitment of designed MC4R peptide analogues. BRET assay was used to measure the transient interaction of MC4R-EGFP with β-arrestin-2-nanoluciferase (NLuc) in HEK293 cells over time following cell treatment with 10 μM of tachyplesin-1-like peptides (Ta1LPs, green), protegrin-4-like peptides (Pr4LPs, pink), arenicin-3-like peptides (Ar3LPs, orange), and gomesin-like peptides (GoLPs, blue). Relative BRET quantification was determined by calculating the mean value of ligand-induced BRET for each peptide ligand from 312 to 2433 s which was then divided by the mean value of ligand-induced BRET of NDP-α-MSH set as 100. Data are shown as mean ± SEM from three independent experiments.\nBRET assay was performed as previously described.[32] Briefly, β-arrestin-2-nano luciferase and mouse MC4R-EGFP were cotransfected in a 1:10 ratio. 16 h post-transfection, 50,000 cells in 100 μL of phenol red-free DMEM with 10% FBS per well were transferred into white clear bottom 96-well plates and incubated overnight. On the day of the assay, cells were incubated for 1 h at 37 °C in phenol red- and serum-free DMEM. Furimazine (diluted 1:50) and peptide ligands (4×) were prepared in Hank’s balanced salt solution (HBSS), respectively. Prior to establishing the baseline and measuring kinetic BRET, furimazine was incubated for 5 min at 37 °C. The ability of peptide ligands to induce β-arrestin-2 recruitment was assessed by measuring light emissions for EGFP (510 nm) and nanoluciferase (460 nm) over 35 min using Flexstation 3 (Molecular Devices, San Jose, USA). The BRET ratio was calculated as emission EGFP (510 nm)/emission nanoluciferase (460 nm). The ligand-induced BRET was calculated by subtracting […]."}, "human MC4R [2]": {"molecular_target": "T1, human MC4R", "assay": "nanoluciferase complementation assay MC4R-SmBit / β-arrestin-2-LgBit (β-arrestin-2 recruitment)", "format": "cell-based", "conditions": "for increased potency in β-arrestin-2 recruitment as compared to α-MSH: ratio of EC50 values, nanoluciferase complementation MC4R-SmBit/β-arrestin-2-LgBit; for Emax: read-out: increase in efficacy (Emax) of β-arrestin-2 recruitment compared to α-MSH", "description": "as §1\nIn an attempt to quantify signaling bias using the Black–Leff operational model by calculating ΔΔlog(τ/KA),[27]–[29] we identified a trend for preferred β-arrestin-2 recruitment over Gαs coupling, albeit not significant (data not shown).\nas §2"}, "human MC3R": {"system": "human MC3R", "assay": "pGlo cAMP accumulation assay", "format": "cell-based", "conditions": "cells transiently expressing human MC3R, up to 10 μM, three independent experiments in technical triplicate", "description": "(§3) Following functional analysis at MC4R, we were intrigued to know how selective Pr4LP1 and Ar3LP1 were for MC4R vs other melanocortin receptors.\n(§4) Figure 6 Selectivity determination of Pr4LP1 and Ar3LP1 peptides at MC4R vs MC1R and MC3R. […] Data (not normalized) are represented as mean ± SEM from three independent experiments performed in technical triplicate.\n(§5) Cells transiently expressing human MC1R, MC3R, or MC4R were incubated for 24 h. Afterward all contents of each well were carefully removed, and cells were then equilibrated in cAMP buffer [1× HBSS, 24 mM HEPES, 0.1% (w/v) BSA, 3.96 mM NaHCO3, 1 mM MgSO4, 1.3 mM CaCl2 dihydrate], supplemented with firefly D-luciferin free acid (0.45 mg/mL) (NanoLight Technology). 90 μL of cAMP buffer was added to all wells, and the 96-well plate was then incubated (28 °C, 1 h). Bioluminescence was measured using the CLARIOstar Plus Plate Reader (BMG LabTech). Prior to injecting the treatment ligands, approximately 5–10 basal readings were performed until stabilization was reached. Peptide ligands (10 μL) were added to the well. Bioluminescence was measured for a total of 30 cycles (1 min per cycle, 1 s integration time, without filter, a fixed gain of 3000, and autofocus)."}, "human MC4R [3]": {"system": "human MC4R", "assay": "pGlo cAMP accumulation assay", "format": "cell-based", "conditions": "cells transiently expressing human MC4R, 1 and 10 μM, three independent experiments in technical triplicate", "description": "as §3, §4, §5"}, "human MC1R": {"system": "human MC1R", "assay": "pGlo cAMP accumulation assay", "format": "cell-based", "conditions": "cells transiently expressing human MC1R, up to 10 μM, three independent experiments in technical triplicate", "description": "as §3, §4, §5"}}, "note": "Where a SMILES comes first, the peptide text is derived from it. Bridges are numbered along the chain shown (N, C = ends). [ ]: non-standard residue; d: D form."}
{"molecule": "CC(C)[C@@H]1NC(=O)[C@H](Cc2ccc(O)cc2)NC(=O)[C@H](Cc2c[nH]c3ccccc23)NC(=O)[C@@H](NC(=O)[C@H](Cc2ccccc2)NC(=O)CN)CSSC[C@@H](C(=O)N[C@@H](CC(N)=O)C(N)=O)NC(=O)[C@H](CCCNC(=N)N)NC(=O)[C@H](CCCNC(=N)N)NC(=O)[C@H](Cc2ccc(O)cc2)NC(=O)[C@@H]2CSSC[C@H](NC1=O)C(=O)N1CCC[C@H]1C(=O)N[C@@H](Cc1c[nH]cn1)C(=O)N[C@H](Cc1ccccc1)C(=O)N[C@@H](Cc1c[nH]cn1)C(=O)N[C@@H](Cc1c[nH]c3ccccc13)C(=O)N2", "note": "[Ar3LP1] (H-GFCWYVCPH[dF]HWCYRRCN-NH2; disulfide 3-17, 7-13)", "values": [{"measurement": "selectivity in recruiting β-arrestin-2", "setting": "MC4R over MC1R and MC3R", "value": "selective for MC4R over MC1R and MC3R"}, {"measurement": "EC50", "setting": "human MC4R [1]", "value": 0.702, "unit": "nM"}, {"measurement": "increase in efficacy in recruiting Gαs compared to α-MSH", "setting": "human MC4R [1]", "value": 25, "unit": "%"}, {"measurement": "BRET efficacy of β-arrestin-2 recruitment relative to NDP-α-MSH", "setting": "mouse MC4R-EGFP", "value": "> 130", "unit": "%"}, {"measurement": "EC50", "setting": "human MC4R [2]", "value": 25.2, "unit": "nM"}, {"measurement": "increased potency in β-arrestin-2 recruitment as compared to α-MSH", "setting": "human MC4R [2]", "value": "approximately 20 fold"}, {"measurement": "Emax", "setting": "human MC4R [2]", "value": 82, "unit": "%"}, {"measurement": "cAMP response at MC3R (RLU)", "setting": "human MC3R", "value": "no response"}, {"measurement": "cAMP response at MC4R (RLU)", "setting": "human MC4R [3]", "value": "activate the receptor"}, {"measurement": "cAMP response at MC1R (RLU)", "setting": "human MC1R", "value": "no response"}]}
{"molecule": "CC(C)C[C@H](NC(=O)[C@H](CCCNC(=N)N)NC(=O)CNC(=O)CNC(=O)[C@@H](N)CCCNC(=N)N)C(=O)N[C@H]1CSSC[C@@H](C(=O)N[C@H](C(=O)NCC(=O)N[C@@H](CCCNC(=N)N)C(N)=O)C(C)C)NC(=O)[C@H](Cc2ccccc2)NC(=O)[C@@H]2CSSC[C@H](NC(=O)[C@H](Cc3ccc(O)cc3)NC1=O)C(=O)N1CCC[C@H]1C(=O)N[C@@H](Cc1c[nH]cn1)C(=O)N[C@H](Cc1ccccc1)C(=O)N[C@@H](Cc1c[nH]cn1)C(=O)N[C@@H](Cc1c[nH]c3ccccc13)C(=O)N2", "note": "[Pr4LP1] (H-RGGRLCYCPH[dF]HWCFCVGR-NH2; disulfide 6-16, 8-14)", "values": [{"measurement": "selectivity in recruiting β-arrestin-2", "setting": "MC4R over MC1R and MC3R", "value": "selective for MC4R over MC1R and MC3R"}, {"measurement": "EC50", "setting": "human MC4R [1]", "value": 0.193, "unit": "nM"}, {"measurement": "increase in efficacy in recruiting Gαs compared to α-MSH", "setting": "human MC4R [1]", "value": 8.8, "unit": "%"}, {"measurement": "BRET efficacy of β-arrestin-2 recruitment relative to NDP-α-MSH", "setting": "mouse MC4R-EGFP", "value": "> 130", "unit": "%"}, {"measurement": "EC50", "setting": "human MC4R [2]", "value": 23.5, "unit": "nM"}, {"measurement": "increased potency in β-arrestin-2 recruitment as compared to α-MSH", "setting": "human MC4R [2]", "value": "approximately 20 fold"}, {"measurement": "Emax", "setting": "human MC4R [2]", "value": 99, "unit": "%"}, {"measurement": "cAMP response at MC3R (RLU)", "setting": "human MC3R", "value": "no response"}, {"measurement": "cAMP response at MC4R (RLU)", "setting": "human MC4R [3]", "value": "activate the receptor"}, {"measurement": "cAMP response at MC1R (RLU)", "setting": "human MC1R", "value": "no response"}]}
